{"source": "patent US12655113B2", "about": "“Biphenyl compounds as SOCE modulators, compositions and uses thereof” (Università degli Studi del Piemonte Orientale “Amedeo …, priority 2020, dated 2026)", "key": {"[1]": {"system": "tBHQ-induced calcium influx into Hek cells (SOCE)", "assay": "Store-operated calcium entry (SOCE) by Fura-2 Ca2+ measurements in Hek cells", "type": "cell-based, Human", "settings": "for Calcium response to SOCE-modulators (regulation of SOCE): FIG. 2A, HEK cells, stores depleted with 50 μM tBHQ, compound added with 2 mM Ca2+"}, "[2]": {"system": "SOCE in myotubes from KI-STIM1I115F mice (STIM1 mutated protein)", "assay": "Pharmacological modulation of SOCE in myotubes from KI-STIM1 I115F mice", "type": "cell-based, mouse", "settings": "FIG. 4", "description": "Wild-type and KI-STIM1^I115F primary myoblast were obtained from the following muscles: gastrocnemius, tibialis anterior, quadriceps femoris, extensor digitorum longus, soleus, biceps brachii and diaphragm. Each muscle was placed in a 60 mm dish in phosphate-buffered saline (PBS), removed from the tendon and separated longitudinally and subsequently chopped into smaller pieces. The small fragments were incubated with Pronase® (Protease, Streptomyces griseus, Calbiochem®, 25 KU) for 1 hour at 37° C. in shaking and neutralized with Dulbecco's Modified Eagle's Medium (DMEM, Sigma-Aldrich, Italy), supplemented with 10% heat-inactivated FCS (Gibco, Italy), L-glutamine 50 mg/mL (Sigma-Aldrich, Italy), penicillin 10 U/mL and streptomycin […] (Sigma-Aldrich, Italy), and 1% chicken embryo extract (Sigma-Aldrich, Italy). Tissues were then chopped into smaller pieces passing through pipets of 10 and 5 mL and the supernatant obtained was filtered in 40 μm strainer and centrifuge at RT for 10 minutes at 1200 rpm. […]\nMyotubes were generated from 4 animals in each condition. We also analysed whether SOCE in WT myotubes was modified during the lifespan of these animals. […]"}, "[3]": {"system": "SOCE in myotubes from mdx mice", "assay": "Pharmacological modulation of SOCE in myotubes of DMD mouse model (mdx)", "type": "cell-based", "settings": "FIG. 6; for over-activation of SOCE in DMD mouse model (DMD mutated protein): myotubes from mdx mice", "description": "Myotubes were generated from 4 animals in each condition. We analysed whether SOCE is increased in myotubes from mxd mice as compared to myotubes from WT mice. To do this, we employed a classical protocol for Ca^2+-entry, in which stores are depleted with tBHQ in a Ca^2+-free buffer and after 10 minutes cells are perfused in a Ca^2+-containing solution (2 mM).\nMyotubes from 4 wild type (WT) and 4 mdx mice were loaded with 5 μM Fura-2 AM and placed in an extracellular solution containing 0 mM Ca^2+. Stores were depleted with 50 μM tBHQ and after 10 minutes cells are perfused in a Ca^2+-containing solution (2 mM) in presence or absence of the selected compound (3-(1-(3-methoxy-[1,1-biphenyl]-4-yl)-1H-1,2,3-triazol-4-yl)benzoic acid)."}, "[4]": {"settings": "Homo sapiens, HEK293, Hek cells"}, "[5]": {"settings": "Homo sapiens, HEK293, Hek cells, 3 μM"}}, "data": [{"smiles": "COc1cccc(-c2ccc(-c3cn(-c4cccc(C(=O)O)c4)nn3)cc2)c1", "note": "[Compound 36, 3-(4-(3′-methoxy-[1,1′-biphenyl]-4-yl)-1H-1,2,3-triazol-1-yl)benzoic acid]", "values": [{"measurement": "inhibition at 10 µM", "setting": "[1]; [4]", "result": "87 ± 1.1", "unit": "%"}]}, {"smiles": "COc1cccc(OC)c1-c1ccc(-c2cn(-c3cccc(C(=O)O)c3)nn2)cc1", "note": "[Compound 44, 3-(4-(2′,6′-dimethoxy-[1,1′-biphenyl]-4-yl)-1H-1,2,3-triazol-1-yl)benzoic acid]", "values": [{"measurement": "activity at 3 µM", "setting": "[1]; Homo sapiens, HEK293, Hek cells, 3 μM, read-out: Residual activity of SOCE", "result": "122.8 ± 0.89", "unit": "%"}]}, {"smiles": "COc1ccc(OC)c(-c2ccc(-n3cc(-c4ccncc4F)nn3)cc2)c1", "note": "[Compound 26, 4-(1-(2′,5′-dimethoxy-[1,1′-biphenyl]-4-yl)-1H-1,2,3-triazol-4-yl)-3-fluoropyridine]", "values": [{"measurement": "Calcium response to SOCE-modulators (regulation of SOCE)", "setting": "[1]", "result": "no activity"}]}, {"smiles": "COc1ccc(-c2ccc(-n3cc(-c4cccc(C(=O)O)c4)nn3)cc2)c(OC)c1", "note": "[Compound 15, 3-(1-(2′,4′-dimethoxy-[1,1′-biphenyl]-4-yl)-1H-1,2,3-triazol-4-yl)benzoic acid]", "values": [{"measurement": "inhibition at 10 µM", "setting": "[1]; [4]", "result": "68.1 ± 4.2", "unit": "%"}]}, {"smiles": "COc1cccc(-c2ccc(-c3cn(-c4cccc(C(=O)O)c4)nn3)cc2)c1OC", "note": "[Compound 42, 3-(4-(2′,3′-dimethoxy-[1,1′-biphenyl]-4-yl)-1H-1,2,3-triazol-1-yl)benzoic acid]", "values": [{"measurement": "inhibition at 3 µM", "setting": "[1]; [5]", "result": "93.2 ± 5.1", "unit": "%"}]}, {"smiles": "COc1ccccc1-c1ccc(-n2cc(-c3cccc(C(=O)O)c3)nn2)cc1", "note": "[Compound 12, 3-(1-(2′-methoxy-[1,1′-biphenyl]-4-yl)-1H-1,2,3-triazol-4-yl)benzoic acid]", "values": [{"measurement": "inhibition at 10 µM", "setting": "[1]; [4]", "result": "47.2 ± 7.2", "unit": "%"}]}, {"smiles": "COc1ccc(-c2ccc(-c3cn(-c4cccc(C(=O)O)c4)nn3)cc2)c(OC)c1", "note": "[Compound 37, 3-(4-(2′,4′-dimethoxy-[1,1′-biphenyl]-4-yl)-1H-1,2,3-triazol-1-yl)benzoic acid]", "values": [{"measurement": "inhibition at 10 µM", "setting": "[1]; [4]", "result": "77.1 ± 0.9", "unit": "%"}]}, {"smiles": "O=C(O)c1cccc(-c2cn(-c3ccc(-c4ccc5c(c4)OCCO5)cc3)nn2)c1", "note": "[Compound 18, 3-(1-(4-(2,3-dihydrobenzo[b][1,4]dioxin-6-yl)phenyl)-1H-1,2,3-triazol-4-yl)benzoic acid]", "values": [{"measurement": "Calcium response to SOCE-modulators (regulation of SOCE)", "setting": "[1]", "result": "negatively regulate SOCE"}, {"measurement": "inhibition at 10 µM", "setting": "[1]; [4]", "result": "82.7 ± 4", "unit": "%"}, {"measurement": "over-activation of STIM1 mutated protein", "setting": "[2]", "result": "able to revert the over-activation of STIM1 mutated proteins"}, {"measurement": "over-activation of SOCE in DMD mouse model (DMD mutated protein)", "setting": "[3]", "result": "able to revert the over-activation of SOCE in DMD mouse model"}]}, {"smiles": "COc1cccc(-c2ccc(-n3cc(-c4cccc(C(=O)O)c4)nn3)cc2)c1OC", "note": "[Compound 20, 3-(1-(2′,3′-dimethoxy-[1,1′-biphenyl]-4-yl)-1H-1,2,3-triazol-4-yl)benzoic acid]", "values": [{"measurement": "Calcium response to SOCE-modulators (regulation of SOCE)", "setting": "[1]", "result": "negatively regulate SOCE"}]}, {"smiles": "CSc1cccc(-c2ccc(-n3cc(-c4cccc(C(=O)O)c4)nn3)cc2)c1", "note": "[Compound 11, 3-(1-(3′-(methylthio)-[1,1′-biphenyl]-4-yl)-1H-1,2,3-triazol-4-yl)benzoic acid]", "values": [{"measurement": "inhibition at 10 µM", "setting": "[1]; [4]", "result": "72.6 ± 13.6", "unit": "%"}]}, {"smiles": "COc1cc(OC)cc(-c2ccc(-n3cc(-c4cccc(C(=O)O)c4)nn3)cc2)c1", "note": "[Compound 16, 3-(1-(3′,5′-dimethoxy-[1,1′-biphenyl]-4-yl)-1H-1,2,3-triazol-4-yl)benzoic acid]", "values": [{"measurement": "inhibition at 10 µM", "setting": "[1]; [4]", "result": "77.4 ± 4.7", "unit": "%"}]}, {"smiles": "COC(=O)c1cc(-n2cc(-c3ccc(-c4cc(OC)ccc4OC)cc3)nn2)ccn1", "note": "[Compound 47, methyl 4-(4-(2′,5′-dimethoxy-[1,1′-biphenyl]-4-yl)-1H-1,2,3-triazol-1-yl)picolinate]", "values": [{"measurement": "inhibition at 10 µM", "setting": "[1]; [4]", "result": "73.5 ± 1.4", "unit": "%"}]}, {"smiles": "O=C(O)c1cccc(-c2cn(-c3ccc(-c4ccc5c(c4)OCO5)cc3)nn2)c1", "note": "[Compound 17, 3-(1-(4-(benzo[d][1,3]dioxol-5-yl)phenyl)-1H-1,2,3-triazol-4-yl)benzoic acid]", "values": [{"measurement": "inhibition at 10 µM", "setting": "[1]; [4]", "result": "37.3 ± 4.2", "unit": "%"}]}, {"smiles": "COc1cccc(-c2ccc(-n3cc(-c4cccc(C(=O)O)c4)nn3)cc2)c1", "note": "[Compound 13, 3-(1-(3′-Methoxy-[1,1′-biphenyl]-4-yl)-1H-1,2,3-triazol-4-yl)benzoic acid]", "values": [{"measurement": "Calcium response to SOCE-modulators (regulation of SOCE)", "setting": "[1]", "result": "negatively regulate SOCE"}, {"measurement": "inhibition at 3 µM", "setting": "[1]; [5]", "result": "85 ± 9", "unit": "%"}, {"measurement": "over-activation of STIM1 mutated protein", "setting": "[2]", "result": "able to revert the over-activation of STIM1 mutated protein"}, {"measurement": "SOCE in myotubes from mdx mice", "setting": "[3]; 10 μM", "result": "impairs SOCE"}, {"measurement": "over-activation of SOCE in DMD mouse model (DMD mutated protein)", "setting": "[3]", "result": "able to revert the over-activation of DMD mutated protein"}]}, {"smiles": "COc1ccc(OC)c(-c2ccc(-c3cn(-c4cccc(C(=O)O)c4)nn3)cc2)c1", "note": "[Compound 46, 3-(4-(2′,5′-dimethoxy-[1,1′-biphenyl]-4-yl)-1H-1,2,3-triazol-1-yl)benzoic acid]", "values": [{"measurement": "inhibition at 3 µM", "setting": "[1]; [5]", "result": "78.7 ± 3.8", "unit": "%"}, {"measurement": "inhibition at 10 µM", "setting": "[1]; [4]", "result": "87.8 ± 2.9", "unit": "%"}]}, {"smiles": "COc1ccc(OC)c(-c2ccc(-n3cc(-c4cccc(C(=O)O)c4)nn3)cc2)c1", "note": "[Compound 24, 3-(1-(2′,5′-dimethoxy-[1,1′-biphenyl]-4-yl)-1H-1,2,3-triazol-4-yl)benzoic acid]", "values": [{"measurement": "inhibition at 3 µM", "setting": "[1]; [5]", "result": "85.8 ± 6.5", "unit": "%"}]}, {"smiles": "COc1ccc(OC)c(-c2ccc(-n3cc(-c4ccnc(C(=O)O)c4)nn3)cc2)c1", "note": "[Compound 25, 4-(1-(2′,5′-dimethoxy-[1,1′-biphenyl]-4-yl)-1H-1,2,3-triazol-4-yl)picolinic acid]", "values": [{"measurement": "inhibition at 10 µM", "setting": "[1]; [4]", "result": "79.9 ± 4.1", "unit": "%"}]}, {"smiles": "COc1ccccc1-c1ccc(-c2cn(-c3cccc(C(=O)O)c3)nn2)cc1", "note": "[Compound 35, 3-(4-(2′-methoxy-[1,1′-biphenyl]-4-yl)-1H-1,2,3-triazol-1-yl)benzoic acid]", "values": [{"measurement": "inhibition at 10 µM", "setting": "[1]; [4]", "result": "59.6 ± 5.43", "unit": "%"}]}, {"smiles": "COc1cc(OC)cc(-c2ccc(-c3cn(-c4cccc(C(=O)O)c4)nn3)cc2)c1", "note": "[Compound 38, 3-(4-(3′,5′-dimethoxy-[1,1′-biphenyl]-4-yl)-1H-1,2,3-triazol-1-yl)benzoic acid]", "values": [{"measurement": "inhibition at 10 µM", "setting": "[1]; [4]", "result": "86.2 ± 4.2", "unit": "%"}]}]}
